Data on 2 compounds can be found in ChEMBL document CHEMBL1124317, “Rationale for the synthesis and preliminary biological evaluation of highly active new antitumor nitrosoureido sugars” (J Med Chem, 1989).

Broadly, the T/C is the result in the treated group divided by that in the control group, in per cent.

Experiment [1] is described as follows: Mortality range of the mice with L1210 leukemia treated with 1.25 mg/kg of dose intraperitoneally with no of mice survived/no of mice treated; 0/8. It counts as functional. To be noted: route intraperitoneal.
Experiment [2] deals with Mus musculus. In words: The number of L1210 leukemia mice survived after 60 days with compound injected by a dose of 5 mg/kg intraperitoneally; 4/8. The format is functional. To be noted: route intraperitoneal.
The test system of experiment [3] is Mus musculus. In words: Anti tumor activity l when treated to mice with L1210 leukemia with 5 mg/kg dose of compound intraperitoneally was expressed as percent of treated to control (T/C %). To be noted: route intraperitoneal. The format is functional.
Experiment [4] has as its system Mus musculus. In words: Anti tumor activity l when treated to mice with L1210 leukemia with 2.5 mg/kg dose of compound intraperitoneally was expressed as percent of treated to control (T/C %). It counts as functional. To be noted: route intraperitoneal.
Experiment [5] relates to Mus musculus. As to the kind of experiment: The number of L1210 leukemia mice survived after 30 days with compound in aqueous solution injected by a dose of 10 mg/kg intraperitoneally; 0/10. To be noted: route intraperitoneal. The format is functional.
Experiment [6] concerns Mus musculus. In words: The number of L1210 leukemia mice survived after 30 days with compound in aqueous solution injected by a dose of 5 mg/kg intraperitoneally; 7/10. It counts as functional. To be noted: route intraperitoneal.
The test system of experiment [7] is Mus musculus. In words: Median survival time of the non surviving mice; treated with 5 mg/kg of compound in olive oil to mice with L1210 leukemia; 23-49. It counts as functional.
The subject of experiment [8] is Mus musculus. In words: The number of L1210 leukemia mice survived after 30 days with compound injected by a dose of 2.5 mg/kg intraperitoneally; 0/8. It counts as functional. To be noted: route intraperitoneal.
For experiment [9], the system named is Mus musculus. As to the kind of experiment: Anti tumor activity in olive oil when treated to mice with L1210 leukemia with 10 mg/kg dose of compound intraperitoneally was expressed as percent of treated to control (T/C %). The format is functional. To be noted: route intraperitoneal.
The subject of experiment [10] is Mus musculus. As to the kind of experiment: Anti tumor activity l when treated to mice with L1210 leukemia with 0.625 mg/kg dose of compound intraperitoneally was expressed as percent of treated to control (T/C %). The format is functional. To be noted: route intraperitoneal.
Experiment [11] in a line: Mortality range of the mice with L1210 leukemia treated with 0.625 mg/kg of dose intra peritoneally with no of mice survived/no of mice treated; 0/8. The format is functional.
The test system of experiment [12] is Mus musculus. In words: The number of L1210 leukemia mice survived after 30 days with compound injected by a dose of 1.25 mg/kg intraperitoneally; 0/8. To be noted: route intraperitoneal. The format is functional.
Experiment [13] deals with Mus musculus. As to the kind of experiment: Anti tumor activity l when treated to mice with L1210 leukemia with 1.25 mg/kg dose of compound intraperitoneally was expressed as percent of treated to control (T/C %). The format is functional. To be noted: route intraperitoneal.
Experiment [14] has as its system Mus musculus. As to the kind of experiment: Median survival time of the non surviving mice; treated with 5 mg/kg of compound to mice with L1210 leukemia; 43-54. The format is functional.
Experiment [15] is described as follows: Number of mice died/no of mice treated with 10 mg/kg of compound in aqueous solution intraperitoneally with L1210 leukemia; 1/10. To be noted: route intraperitoneal. The format is functional.
The subject of experiment [16] is Mus musculus. As to the kind of experiment: Median survival time of the non surviving mice; treated with 10 mg/kg of compound in olive oil to mice with L1210 leukemia; 15-25. It counts as functional.
Experiment [17] has as its system Mus musculus. As to the kind of experiment: The number of L1210 leukemia mice survived after 30 days with compound injected by a dose of 5 mg/kg intraperitoneally; 8/8. It counts as functional. To be noted: route intraperitoneal.
Experiment [18] relates to Mus musculus. In words: The number of L1210 leukemia mice survived after 60 days with compound in aqueous solution injected by a dose of 10 mg/kg intraperitoneally; 0/10. The format is functional. To be noted: route intraperitoneal.
Experiment [19] relates to Mus musculus. In words: The number of L1210 leukemia mice survived after 30 days with compound injected by a dose of 0.625 mg/kg intraperitoneally; 0/8. To be noted: route intraperitoneal. The format is functional.
For experiment [20], the system named is Mus musculus. In words: Anti tumor activity in olive oil when treated to mice with L1210 leukemia with 5 mg/kg dose of compound intraperitoneally was expressed as percent of treated to control (T/C %). To be noted: route intraperitoneal. The format is functional.
The subject of experiment [21] is Mus musculus. In words: Median survival time of the non surviving mice; treated with 2.5 mg/kg of compound to mice with L1210 leukemia; 17-25. It counts as functional.
Experiment [22] can be described thus: Mortality range of the mice with L1210 leukemia treated with 5 mg/kg of dose intraperitoneally with no of mice survived/no of mice treated; 0/8. It counts as functional. To be noted: route intraperitoneal.
A short description of experiment [23]: Number of mice died/no of mice treated with 5 mg/kg of compound in aqueous solution intraperitoneally with L1210 leukemia; 0/10. To be noted: route intraperitoneal. The format is functional.
The subject of experiment [24] is Mus musculus. As to the kind of experiment: Mortality range of the mice with L1210 leukemia treated with 2.5 mg/kg of dose intraperitoneally with no of mice survived/no of mice treated; 0/8. To be noted: route intraperitoneal. It counts as functional.
Experiment [25] deals with Mus musculus. In words: The number of L1210 leukemia mice survived after 60 days with compound in aqueous solution injected by a dose of 5 mg/kg intraperitoneally; 4/10. It counts as functional. To be noted: route intraperitoneal.
Experiment [26] relates to Mus musculus. In words: Median survival time of the non surviving mice; treated with 1.25 mg/kg of compound to mice with L1210 leukemia; 11-15. The format is functional.
Experiment [27] relates to Mus musculus. In words: Median survival time of the non surviving mice; treated with 0.625 mg/kg of compound to mice with L1210 leukemia; 10-11. It counts as functional.
In experiment [28] the test system is Mus musculus. As to the kind of experiment: Ratio of mice died to that of mice treated with 20 mg/kg of compound in olive oil intraperitoneally with Lewis lung; 0/20. The format is functional. To be noted: route intraperitoneal.
Experiment [29] relates to Mus musculus. In words: Median survival time of the non surviving mice; treated with 20 mg/kg of compound in olive oil to mice with B16 Melanocarcinoma; 14-55. The format is functional.
In experiment [30] the test system is Mus musculus. In words: The number of B16 melanocarcinoma mice survived after 60 days with compound in olive oil injected by a dose of 20 mg/kg intraperitoneally; 2/20. To be noted: route intraperitoneal. It counts as functional.
Experiment [31] deals with Mus musculus. As to the kind of experiment: The number of B16 melanocarcinoma mice survived after 30 days with compound in olive oil injected by a dose of 20 mg/kg intraperitoneally; 13/20. It counts as functional. To be noted: route intraperitoneal.
In experiment [32] the test system is Mus musculus. As to the kind of experiment: Ratio of mice died to that of mice treated with 20 mg/kg of compound in olive oil intraperitoneally with L1210 leukemia tumor; 0/15. It counts as functional. To be noted: route intraperitoneal.
Experiment [33] has as its system Mus musculus. As to the kind of experiment: The number of L1210 Leukemia mice survived after 60 days with compound in olive oil injected by a dose of 20 mg/kg intraperitoneally; 10/15. The format is functional. To be noted: route intraperitoneal.
The test system of experiment [34] is Mus musculus. In words: The number of Lewis lung mice survived after 30 days with compound in olive oil injected by a dose of 20 mg/kg intraperitoneally; 18/20. To be noted: route intraperitoneal. It counts as functional.
The species entered for experiment [35] is Mus musculus. In words: Median survival time of the non surviving mice; there are two deaths on day 27, one death on day 29, and two deaths on day 41. The format is functional, organism-based.
Experiment [36] relates to Mus musculus. As to the kind of experiment: The number of Lewis lung mice survived after 60 days with compound in olive oil injected by a dose of 20 mg/kg intraperitoneally; 15/20. It counts as functional. To be noted: route intraperitoneal.
The test system of experiment [37] is Mus musculus. In words: Anti tumor activity in olive oil when treated to mice with B16 melanocarcinoma with 20 mg/kg dose of compound intraperitoneally was expressed as percent of treated to control (T/C %). It counts as functional. To be noted: route intraperitoneal.
In experiment [38] the test system is Mus musculus. In words: Ratio of mice died to that of mice treated with 20 mg/kg of compound in olive oil intraperitoneally with B16 Melanocarcinoma; 0/20. The format is functional. To be noted: route intraperitoneal.
The test system of experiment [39] is Mus musculus. As to the kind of experiment: The number of L1210 Leukemia mice survived after 30 days with compound in olive oil injected by a dose of 20 mg/kg intraperitoneally; 12/15. It counts as functional. To be noted: route intraperitoneal.

`CO[C@H]1C[C@@H](NC(=O)N(CCCl)N=O)[C@H](O)[C@@H](C)O1`: the Ratio in [1] is given as 0; in experiment [11] it was 0; in experiment [15] it was 1; in experiment [22] it was 0; in [23], 0. The Survivals with Mus musculus [2] worked out at 4; in the experiment with Mus musculus [5], 0; with Mus musculus [6] it was 7; in the experiment with Mus musculus [8], 0; in the experiment with Mus musculus [12] it was 0; in the experiment with Mus musculus [17] it was 8. Besides, the Survivals in the experiment with Mus musculus [18] worked out at 0; in the experiment on Mus musculus [19], 0; in the experiment on Mus musculus [25] it was 4. Moreover, the T/C in the experiment on Mus musculus [3] was 539%; in the experiment on Mus musculus [4], 244%; with Mus musculus [9], 198%; with Mus musculus [10], 118%; in the experiment with Mus musculus [13], 144%; with Mus musculus [20], 519%. The Median survival time was determined as 49 with Mus musculus [7]; 48.5 in the experiment on Mus musculus [14]; 18.75 in the experiment with Mus musculus [16]; 21.9 in the experiment with Mus musculus [21]; 12.9 in the experiment with Mus musculus [26]; 10.6 in the experiment on Mus musculus [27]. The Mortality ratio with Mus musculus [24] came to 0.

As to `COC1CC(NC(=O)N(CCCl)N=O)C(O)C(CNC(=O)N(CCCl)N=O)O1` (centres undefined), the Ratio in the experiment on Mus musculus [28], in the experiment with Mus musculus [32] and in the experiment with Mus musculus [38] was 0 in each case. Further, the Median survival time was 31.37 in the experiment on Mus musculus [29]; “there are two deaths on day 27, one death on day 29, and two deaths on day 41” in the experiment listed under Mus musculus [35]. In addition, the Survivals is reported as 2 with Mus musculus [30]; 13 in the experiment with Mus musculus [31]; 10 in the experiment on Mus musculus [33]; 18 in the experiment with Mus musculus [34]; 15 in the experiment on Mus musculus [36]; 12 with Mus musculus [39]. In the experiment with Mus musculus [37], the T/C is given as 225%.
